This is an account of results in PMC9180926, “Discovery of Novel 3-Hydroxyquinazoline-2,4(1H,3H)-Dione Derivatives: A Series of Metal Ion Chelators with Potent Anti-HCV Activities” (International Journal of Molecular Sciences, 2022).

Test [1] concerns HCV 1b replicon cells (Huh-7.5.1). Put plainly: Anti-HCV assay, HCV 1b replicon cells with luciferase reporter. The format is cell-based, hepatitis C virus (HCV) subtype 1b. To be noted: Hepatitis C virus, HCV 1b replicon cells. (Replicon systems follow genome replication, usually without infectious particles.)
For test [2] the test system is unchanged. The description is as above. It is filed as cell-based, hepatitis C virus (HCV) subtype 1b. To be noted: Hepatitis C virus, Huh-7.5.1, 72 h, inhibitory rate at 5 μM.
In test [3] the target is T1, C-terminal His-tagged NS5BΔ21 from HCV 1b subtype (Hepatitis C virus genotype 1b, UniProt Q913V3).
T1 construct: C-terminal His-tagged NS5BΔ21 from HCV 1b subtype; His tag (C); made in house
T1 sequence (Q913V3 2420-2989, stated change not applied): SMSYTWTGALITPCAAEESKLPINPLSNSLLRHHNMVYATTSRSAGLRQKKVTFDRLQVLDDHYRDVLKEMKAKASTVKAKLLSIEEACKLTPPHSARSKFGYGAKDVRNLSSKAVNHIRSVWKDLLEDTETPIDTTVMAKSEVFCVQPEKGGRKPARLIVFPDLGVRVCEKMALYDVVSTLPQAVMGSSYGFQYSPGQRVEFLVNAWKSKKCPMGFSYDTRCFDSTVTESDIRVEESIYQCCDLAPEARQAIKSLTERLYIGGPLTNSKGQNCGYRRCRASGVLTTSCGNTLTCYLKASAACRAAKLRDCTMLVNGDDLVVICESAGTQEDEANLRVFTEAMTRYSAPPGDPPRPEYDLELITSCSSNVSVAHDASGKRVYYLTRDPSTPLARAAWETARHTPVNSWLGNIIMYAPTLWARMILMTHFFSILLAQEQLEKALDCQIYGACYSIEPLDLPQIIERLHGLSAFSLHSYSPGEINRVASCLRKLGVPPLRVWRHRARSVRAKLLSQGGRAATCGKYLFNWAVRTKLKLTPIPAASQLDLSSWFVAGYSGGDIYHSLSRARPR
As to the kind of experiment: Thermal shift assay with NS5B protein. It is filed as binding. From the text: The stability of a protein system is enhanced after binding to its specific ligand, leading to an increase in the melting temperature (Tm). Taking advantage of this feature, the thermal shift assay was extensively used to assess the binding of small molecules to the protein targets. The metal ion chelators were thought to exert an anti-HCV effect by chelating with Mg^2+ in the catalytic center of NS5B [34, 36, 38]. […] C-terminal His-tagged NS5BΔ21 from HCV 1b subtype was used as the protein in the experiment. Compared with the blank control (DMSO), the fluorescence–temperature curves of the NS5B system in the presence of 21e (Figure 3A) and 21k (Figure 3B) at 50 μM, 100 μM, and 200 μM all shifted to the right of the axis. The Tm values of 21e and 21k increased in a concentration-dependent manner, presenting higher values than that of the blank control (Tm = 63.5 °C) at all tested concentrations.
C-terminal His-tagged NS5BΔ21 from HCV 1b subtype was expressed from pET28a HCR6 plasmid in our lab and dissolved in a Tris-HCl buffer (20 mm, pH 7.2) containing 150 mm NaCl. Then, 1 μL of corresponding concentration (1 mm, 2 mm, or 4 mm) of the test compound in DMSO or 1 μL DMSO alone was added to each well of a 96-well PCR plate (Shanghai Sangon Biotech Co., Ltd., Shanghai, China). Subsequently, 19 μL of pre-prepared PBS solution containing 10 mm MgCl2, 10× SYPRO® orange protein gel stain (Sigma-Aldrich, St. Louis, MO, USA), and 5 μM NS5B protein was added to each well and mixed. The final concentration of DMSO in each well was 5%. The PCR plate was covered with a high-permeable film, incubated at room temperature for 10 min, and then placed on the Applied Biosystems^TM 7500 Real-Time PCR System (Thermo Fisher Scientific, Waltham, MA, USA). The temperature was increased to 90 °C gradually, and the change curve of fluorescence intensity versus system temperature was recorded.

In general, EC50 refers to the concentration at which the effect is half-maximal. As usually defined, the inhibition is how much of the control response was suppressed. As a reminder, the ΔTm is the change in melting temperature against a reference sample.

In test [1] (Huh-7.5.1, 50% effective concentration, mean ± SD), `O=c1[nH]c2cc(-c3ccccc3)ccc2c(=O)n1O` [21e, 3-Hydroxy-7-phenylquinazoline-2,4(1H,3H)-dione] showed an EC50 of 3.2 ± 0.04 µM. In addition, in test [1] (Huh-7.5.1, 72 h, inhibitory rate at 10 μM, 72 h, read-out: HCV Inhibition 10 μM), the inhibition at 10 µM worked out at 78.1%. This molecule also gave an inhibition at 5 µM in test [2] of 39.5%. Also, the ΔTm at 50 µM in test [3] (compound 50 μM, Tm of compound group minus Tm of blank control, mean ± SD, three experiments) turned out to be 0.6 ± 0.15 °C. For the same molecule, in test [3] (compound 100 μM, Tm of compound group minus Tm of blank control, mean ± SD, three experiments), the ΔTm at 100 µM worked out at 0.85 ± 0.02 °C. In addition, the “ΔTm 200 μM” value in test [3] (compound 200 μM, Tm of compound group minus Tm of blank control, mean ± SD, three experiments) came out at 1.5 ± 0.01 °C. For the same molecule, the “Tm of NS5B complexed with compound” value in test [3] (in Figure 3, blank control Tm = 63.5 °C) was found to be 65.0 °C. In addition, the ΔTm at 200 µM in test [3] (read-out: ΔTm 200 μM, compound 200 μM, Tm of compound group minus Tm of blank control, mean ± SD, three experiments) was found to be 1.6 °C.
